From PubChem BioAssay AID330 (DTP/NCI, 2004)
Values joined by “and” are separate entries in the source; they are usually repeats but may differ in a detail not shown here. Identical values can stand only once. Toxic doses and inconclusive results are not listed. Rule for the calls: active = survival T/C of 150% or more; inactive = T/C below 125% in these data.

Tested on: P388 leukemia ip, CD2F1 mice, survival T/C
Assay: NCI In Vivo Anticancer Drug Screen. Data for tumor model P388 Leukemia (intraperitoneal) in CD2F1 (CDF1) mice
Conditions: endpoint: median survival time, higher = longer survival
Summary of the method: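 Mice carrying the transplanted tumor received test compound or vehicle. Survival was recorded in each group, and the value is the treated-group measurement divided by that of the vehicle-treated control group.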

[1] = dose: 50.0 mg/kg/injection, schedule: Q01DX009 (ip), vehicle: saline with Tween-80
[2] = dose: 100.0 mg/kg/injection, schedule: Q01DX009 (ip), vehicle: saline with Tween-80
[3] = dose: 200.0 mg/kg/injection, schedule: Q01DX009 (ip), vehicle: saline with Tween-80
[4] = dose: 400.0 mg/kg/injection, schedule: Q01DX009 (ip), vehicle: saline with Tween-80
[5] = dose: 50.0 mg/kg/injection, schedule: Q01DX009 (ip), vehicle: saline
[6] = dose: 100.0 mg/kg/injection, schedule: Q01DX009 (ip), vehicle: saline
[7] = dose: 200.0 mg/kg/injection, schedule: Q01DX009 (ip), vehicle: saline
[8] = dose: 50.0 mg/kg/injection, schedule: Q01DX009 (ip), vehicle: Klucel (hydroxypropylcellulose) (HPC)
[9] = dose: 100.0 mg/kg/injection, schedule: Q01DX009 (ip), vehicle: Klucel (hydroxypropylcellulose) (HPC)
[10] = dose: 200.0 mg/kg/injection, schedule: Q01DX009 (ip), vehicle: Klucel (hydroxypropylcellulose) (HPC)
[11] = dose: 400.0 mg/kg/injection, schedule: Q01DX009 (ip), vehicle: Klucel (hydroxypropylcellulose) (HPC)
[12] = dose: 25.0 mg/kg/injection, schedule: Q04DX003 (ip), vehicle: saline with Tween-80
[13] = dose: 50.0 mg/kg/injection, schedule: Q01DX005 (ip), vehicle: Klucel (hydroxypropylcellulose) (HPC)
[14] = dose: 100.0 mg/kg/injection, schedule: Q01DX005 (ip), vehicle: Klucel (hydroxypropylcellulose) (HPC)
[15] = dose: 200.0 mg/kg/injection, schedule: Q01DX005 (ip), vehicle: Klucel (hydroxypropylcellulose) (HPC)
[16] = dose: 60.0 mg/kg/injection, schedule: Q01DX005 (ip), vehicle: saline
[17] = dose: 120.0 mg/kg/injection, schedule: Q01DX005 (ip), vehicle: saline
[18] = dose: 50.0 mg/kg/injection, schedule: Q01DX005 (ip), vehicle: saline with Tween-80
[19] = dose: 100.0 mg/kg/injection, schedule: Q01DX005 (ip), vehicle: saline with Tween-80
[20] = dose: 200.0 mg/kg/injection, schedule: Q01DX005 (ip), vehicle: saline with Tween-80
[21] = dose: 1.56 mg/kg/injection, schedule: Q01DX009 (ip), vehicle: saline
[22] = dose: 3.12 mg/kg/injection, schedule: Q01DX009 (ip), vehicle: saline
[23] = dose: 6.25 mg/kg/injection, schedule: Q01DX009 (ip), vehicle: saline
[24] = dose: 12.5 mg/kg/injection, schedule: Q01DX009 (ip), vehicle: saline
[25] = dose: 25.0 mg/kg/injection, schedule: Q01DX009 (ip), vehicle: saline

Measured: T/C

C=C1[C@@H]2CC[C@@]3([C@@H](C2)[C@@]24CCC[C@@]5(C)CN(CCO)[C@@H]2O[C@@H]3C[C@H]54)[C@@H]1O
inactive: dose: 2.0 mg/kg/injection, schedule: Q01DX009 (ip), vehicle: Klucel (hydroxypropylcellulose) (HPC) 97 % of control | dose: 4.0 mg/kg/injection, schedule: Q01DX009 (ip), vehicle: Klucel (hydroxypropylcellulose) (HPC) 97 % of control | dose: 8.0 mg/kg/injection, schedule: Q01DX009 (ip), vehicle: Klucel (hydroxypropylcellulose) (HPC) 98 % of control | dose: 16.0 mg/kg/injection, schedule: Q01DX009 (ip), vehicle: Klucel (hydroxypropylcellulose) (HPC) 94 % of control

CC(C)CC(NC(=O)CCl)C(=O)O (stereo not given)
inactive: dose: 25.0 mg/kg/injection, schedule: Q01DX009 (ip), vehicle: saline with Tween-80 108 % of control | [1] 108 % of control and 110 % of control | [2] 106 % of control and 113 % of control | [3] 96 % of control | [4] 108 % of control

CCNC1=C(C(=O)c2ccccc2)CCC1
inactive: [5] 109 % of control | [6] 104 % of control | [7] 109 % of control

COc1ccc(C(=O)c2ccccc2)cc1
inactive: [8] 105 % of control | [9] 108 % of control | [10] 102 % of control | [11] 98 % of control

O=C1c2ccccc2C2=Cc3ccccc3C(O)N12 (stereo not given)
inactive: dose: 60.0 mg/kg/injection, schedule: Q01DX005 (ip), vehicle: saline with Tween-80 104 % of control | dose: 120.0 mg/kg/injection, schedule: Q01DX005 (ip), vehicle: saline with Tween-80 100 % of control | dose: 240.0 mg/kg/injection, schedule: Q01DX005 (ip), vehicle: saline with Tween-80 100 % of control

C/C(=N\[N+](C)(C)C)c1ccccc1
inactive: dose: 12.5 mg/kg/injection, schedule: Q04DX003 (ip), vehicle: saline with Tween-80 100 % of control | [12] 100 % of control | dose: 50.0 mg/kg/injection, schedule: Q04DX003 (ip), vehicle: saline with Tween-80 102 % of control | dose: 100.0 mg/kg/injection, schedule: Q04DX003 (ip), vehicle: saline with Tween-80 100 % of control

O=C1Cc2ccccc2C2(CCCCC2)O1
inactive: [13] 100 % of control | [14] 98 % of control | [15] 100 % of control

Cc1ncc([N+](=O)[O-])n1Cc1nnc(N)s1
inactive: [8] 107 % of control | [9] 107 % of control | [10] 108 % of control

COC(=O)[C@@]12C(=O)N[C@@H](Cc3ccccc3)[C@@H]1[C@H](C)C(C)=C[C@@H]2CO
inactive: [16] 98 % of control | [17] 95 % of control | dose: 240.0 mg/kg/injection, schedule: Q01DX005 (ip), vehicle: saline 98 % of control

CNc1ccccc1C(=O)C(=O)O
inactive: [2] 105 % of control | [3] 102 % of control | [4] 100 % of control

CC(C)CC(=O)CC(C)(O)CCC(=O)c1ccoc1 (stereo not given)
inactive: dose: 25.0 mg/kg/injection, schedule: Q01DX005 (ip), vehicle: saline with Tween-80 98 % of control | [18] 104 % of control | [19] 102 % of control

Cc1ccc(NC(=O)CNCC(C)C)cc1Cl
inactive: [13] 100 % of control | [14] 109 % of control | [15] 100 % of control

N#CC1(C#N)C(c2ccccc2)C1(C#N)C#N
inactive: dose: 6.25 mg/kg/injection, schedule: Q04DX003 (ip), vehicle: saline sonified 115 % of control | dose: 12.5 mg/kg/injection, schedule: Q04DX003 (ip), vehicle: saline sonified 110 % of control | dose: 16.5 mg/kg/injection, schedule: Q04DX003 (ip), vehicle: saline with Tween-80 108 % of control | [12] 112 % of control

CCN(CC)CCNc1c(OC)cc(C)c2sc3ccccc3c(=O)c12
inactive: [1] 115 % of control | [2] 117 % of control

FC(F)(F)SN1CN(SC(F)(F)F)CN(SC(F)(F)F)CN(SC(F)(F)F)CN(SC(F)(F)F)C1
inactive: [16] 92 % of control | [17] 92 % of control

Cc1ccc(-n2nnc(-c3ccc(Cl)c(Cl)c3)n2)cc1
inactive: [18] 103 % of control | [19] 103 % of control | [20] 100 % of control

C[C@@H]1CCC[C@H]1CC(N)C(=O)O (stereo not given in full)
inactive: [18] 99 % of control | [19] 95 % of control | [20] 91 % of control

CC(=O)Oc1ccc2c3c1O[C@H]1[C@@H](OC(C)=O)C=C[C@H]4[C@@H](C2)N(C)CC[C@@]341
inactive: dose: 0.39 mg/kg/injection, schedule: Q01DX009 (ip), vehicle: saline 100 % of control | dose: 0.78 mg/kg/injection, schedule: Q01DX009 (ip), vehicle: saline 101 % of control | [21] 94 % of control | [22] 95 % of control | [23] 100 % of control | [24] 110 % of control | [25] 100 % of control | [5] 108 % of control | [6] 117 % of control | [7] 110 % of control

CCN(CC)CCCC(C)Nc1cc(OC)c2nc(C)cc(OC)c2c1OC (stereo not given)
inactive: [21] 100 % of control | [22] 89 % of control | [23] 91 % of control and 97 % of control

CCN(CC)Cc1cc(N=Nc2cc(OC)c(N=Nc3ccc([N+](=O)[O-])cc3)cc2OC)c2ccccc2c1O
inactive: dose: 12.5 mg/kg/injection, schedule: Q01DX009 (ip), vehicle: Klucel (hydroxypropylcellulose) (HPC) 110 % of control | dose: 25.0 mg/kg/injection, schedule: Q01DX009 (ip), vehicle: Klucel (hydroxypropylcellulose) (HPC) 100 % of control | [8] 107 % of control and 90 % of control | [9] 100 % of control (2×) and 94 % of control | [11] 101 % of control and 91 % of control

C[C@H]1O[C@H](C)[C@H](O)C2=C1C(=O)c1ccccc1C2=O
inactive: dose: 12.5 mg/kg/injection, schedule: Q04DX002 (ip), vehicle: saline with Tween-80 100 % of control and 95 % of control | dose: 25.0 mg/kg/injection, schedule: Q04DX002 (ip), vehicle: saline with Tween-80 99 % of control and 100 % of control and 96 % of control | dose: 50.0 mg/kg/injection, schedule: Q04DX002 (ip), vehicle: saline with Tween-80 99 % of control and 110 % of control and 94 % of control

[Cl][Al]([Cl])[Cl]
inactive: [23] 100 % of control | dose: 12.5 mg/kg/injection, schedule: Q01DX009 (ip), vehicle: saline sonified 100 % of control | [24] 100 % of control | dose: 25.0 mg/kg/injection, schedule: Q01DX009 (ip), vehicle: saline sonified 90 % of control | [25] 95 % of control | dose: 50.0 mg/kg/injection, schedule: Q01DX009 (ip), vehicle: saline sonified 95 % of control | dose: 100.0 mg/kg/injection, schedule: Q04DX003 (ip), vehicle: saline 90 % of control | dose: 200.0 mg/kg/injection, schedule: Q04DX003 (ip), vehicle: saline 95 % of control and 100 % of control | dose: 400.0 mg/kg/injection, schedule: Q04DX003 (ip), vehicle: saline 86 % of control
